Measurements from patent publication US7109354B2, “Thiophene amidines, compositions thereof, and methods of treating complement-mediated diseases and conditions” (3-Dimensional Pharmaceuticals, Inc., priority 2002, dated 2006).

Target: T1, Activated human C1s (Homo sapiens, UniProt P09871)
T1 construct: purchased Calbiochem (La Jolla, Calif.)
T1 sequence (P09871 438-688 limits assumed): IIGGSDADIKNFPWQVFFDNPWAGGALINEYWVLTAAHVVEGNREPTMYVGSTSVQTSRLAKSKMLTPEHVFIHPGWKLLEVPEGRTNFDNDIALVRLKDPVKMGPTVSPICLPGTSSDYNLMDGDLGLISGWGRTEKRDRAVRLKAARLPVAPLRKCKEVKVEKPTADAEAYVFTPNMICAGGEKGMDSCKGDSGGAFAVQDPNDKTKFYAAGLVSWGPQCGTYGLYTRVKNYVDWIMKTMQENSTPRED
T1 sequence (P09871 16-437 partner limits assumed): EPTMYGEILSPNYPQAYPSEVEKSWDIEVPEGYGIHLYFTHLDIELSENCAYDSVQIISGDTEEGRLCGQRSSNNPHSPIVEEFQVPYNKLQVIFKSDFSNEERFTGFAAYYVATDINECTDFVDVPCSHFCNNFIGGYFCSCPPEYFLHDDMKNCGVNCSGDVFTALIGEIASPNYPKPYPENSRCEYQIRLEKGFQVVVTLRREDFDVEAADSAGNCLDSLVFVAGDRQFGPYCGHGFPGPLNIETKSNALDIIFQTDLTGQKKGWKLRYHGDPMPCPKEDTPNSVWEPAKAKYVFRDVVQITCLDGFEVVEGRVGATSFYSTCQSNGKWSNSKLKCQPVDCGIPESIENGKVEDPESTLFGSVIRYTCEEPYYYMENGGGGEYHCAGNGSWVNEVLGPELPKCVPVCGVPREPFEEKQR
Assay: In vitro inhibition of C1s (Ki determination, C1s-catalyzed hydrolysis of Z-Gly-Arg-S-Bzl, DTNB readout)
Format: biochemical
Details: substrate Z-Gly-Arg-S-Bzl 45 μM, DTNB 200 μM, C1s 2.3 nM, pH 7.5, 37° C., absorbance at 405 nm
Method: Reagents: All buffer salts were obtained from Sigma Chemical Company (St. Louis, Mo.), and were of the highest purity available. DTNB was purchased from Pierce (Rockford, Ill.). Z-Gly-Arg-S-Bzl was purchased from Enzyme Systems Products (Livermore, Calif.). Activated human C1s was purchased from Calbiochem (La Jolla, Calif.).
Test compounds are prepared as a 10 μM solution in DMSO. Dilutions are prepared in DMSO yielding 7 final concentrations encompassing a 700-fold concentration range.
Reactions were initiated by the addition of a 10 μL aliquot of the enzyme, and the absorbance increase at 405 nm is continuously recorded for 15 minutes in a Molecular Devices plate reader. Final DMSO concentration was 4.3%. […] The ratio of the velocity (rate of change in absorbance as a function of time) for a sample containing no test compound is divided by the velocity of a sample containing test compound, and is plotted as a function of test compound concentration. The data are fit to a linear regression, and the value of the slope of the line calculated. The inverse of the slope is the experimentally determined Ki value.

| Compound | Ki |
| --- | --- |
| COc1ccc(-c2cccc(S(=O)(=O)c3cc(C(=N)N)sc3SC)c2)cc1 [Example 42, 4-(4′-Methoxy-biphenyl-3-sulfonyl)-5-methylsulfanyl-thiophene-2-carboxamidine] | 6 to 23 nM |
| COc1ccccc1-c1cccc(S(=O)(=O)c2cc(C(=N)N)sc2SC)c1 [Example 45, 4-(2′-Methoxy-biphenyl-3-sulfonyl)-5-methylsulfanyl-thiophene-2-carboxamidine] | 6 to 23 nM |
| CSc1sc(C(=N)N)cc1S(=O)(=O)c1cccc(-c2cc(Cl)cc(Cl)c2)c1 [Example 46, 4-(3′,5′-Dichloro-biphenyl-3-sulfonyl)-5-methylsulfanyl-thiophene-2-carboxamidine] | 6 to 23 nM |
| CSc1sc(C(=N)N)cc1S(=O)(=O)c1cccc(-c2cc(Cl)ccc2Cl)c1 [Example 47, 4-(2′,5′-Dichloro-biphenyl-3-sulfonyl)-5-methylsulfanyl-thiophene-2-carboxamidine] | 6 to 23 nM |
| CSc1sc(C(=N)N)cc1S(=O)(=O)c1cccc(-c2cc3ccccc3s2)c1 [Example 50, 4-(3-Benzo[b]thiophen-2-yl-benzenesulfonyl)-5-methylsulfanyl-thiophene-2-carboxamidine] | 6 to 23 nM |
| CSc1sc(C(=N)N)cc1S(=O)(=O)c1cccc(-c2ccc(Cl)cc2)c1 [Example 53, 4-(4′-Chloro-biphenyl-3-sulfonyl)-5-methylsulfanyl-thiophene-2-carboxamidine] | 6 to 23 nM |
| CSc1sc(C(=N)N)cc1S(=O)(=O)c1cccc(-c2ccc(OC(F)(F)F)cc2)c1 [Example 55, 5-Methylsulfanyl-4-(4′-trifluoromethoxy-biphenyl-3-sulfonyl)-thiophene-2-carboxamidine] | 6 to 23 nM |
| CSc1sc(C(=N)N)cc1S(=O)(=O)c1cccc(-c2ccc(Oc3ccccc3)cc2)c1 [Example 56, 5-Methylsulfanyl-4-(4′-phenoxy-biphenyl-3-sulfonyl)-thiophene-2-carboxamidine] | 6 to 23 nM |

The remaining lines, values ahead:

| Ki | Compound |
| --- | --- |
| 6 to 23 nM | COc1ccc(-c2cccc(S(=O)(=O)c3cc(C(=N)N)sc3SC)c2)cc1OC [Example 43, 4-(3′,4′-Dimethoxy-biphenyl-3-sulfonyl)-5-methylsulfanyl-thiophene-2-carboxamidine] |
| 6 to 23 nM | COc1cccc(-c2cccc(S(=O)(=O)c3cc(C(=N)N)sc3SC)c2)c1 [Example 44, 4-(3′-Methoxy-biphenyl-3-sulfonyl)-5-methylsulfanyl-thiophene-2-carboxamidine] |
| 6 to 23 nM | CSc1sc(C(=N)N)cc1S(=O)(=O)c1cccc(-c2cc(C(F)(F)F)cc(C(F)(F)F)c2)c1 [Example 48, 4-(3′,5′-Bis-trifluoromethyl-biphenyl-3-sulfonyl)-5-methylsulfanyl-thiophene-2-carboxamidine] |
| 6 to 23 nM | CSc1sc(C(=N)N)cc1S(=O)(=O)c1cccc(-c2cc3ccccc3o2)c1 [Example 49, 4-(3-Benzofuran-2-yl-benzenesulfonyl)-5-methylsulfanyl-thiophene-2-carboxamidine] |
| 6 to 23 nM | CSc1sc(C(=N)N)cc1S(=O)(=O)c1cccc(-c2ccc(C)c([N+](=O)[O-])c2)c1 [Example 51, 4-(4′-Methyl-3′-nitro-biphenyl-3-sulfonyl)-5-methylsulfanyl-thiophene-2-carboxamidine] |
| 6 to 23 nM | CSc1sc(C(=N)N)cc1S(=O)(=O)c1cccc(-c2ccc(C)cc2)c1 [Example 52, 4-(4′-Methyl-biphenyl-3-sulfonyl)-5-methylsulfanyl-thiophene-2-carboxamidine] |
| 6 to 23 nM | CSc1sc(C(=N)N)cc1S(=O)(=O)c1cccc(-c2ccc(C(F)(F)F)cc2)c1 [Example 54, 5-Methylsulfanyl-4-(4′-trifluoromethyl-biphenyl-3-sulfonyl)-thiophene-2-carboxamidine] |
| 6 to 23 nM | CSc1sc(C(=N)N)cc1S(=O)(=O)c1cccc(-c2ccc3c(c2)OCO3)c1 [Example 58, 4-(3-Benzo[1,3]dioxol-5-yl-benzenesulfonyl)-5-methylsulfanyl-thiophene-2-carboxamidine] |
